Active and inactive are the calls of the source. No cut-off for these calls is given here.
What was measured:
[1] = target: Alpha-1B adrenergic receptor (Homo sapiens) (UniProt P35368); conditions: Compound concentration 10.0 uM
[2] = target: Serine/threonine-protein kinase PLK1 (Homo sapiens) (UniProt P53350); assay: Inhibition of Plk1(h) at 10.0 µM in the Eurofins Kinase panel; conditions: Compound concentration 10.0 uM
[3] = target: Serine/threonine-protein kinase PAK 5 (Homo sapiens) (UniProt Q9P286); assay: Inhibition of PAK5(h) at 10.0 µM in the Eurofins Kinase panel; conditions: Compound concentration 10.0 uM
[4] = target: Phosphatidylinositol 4-phosphate 5-kinase type-1 gamma (Homo sapiens) (UniProt O60331); assay: Inhibition of PIP5K1g(h) at 10.0 µM in the Eurofins Kinase panel; conditions: Compound concentration 10.0 uM
[5] = target: MAP/microtubule affinity-regulating kinase 4 (Homo sapiens) (UniProt Q96L34); assay: Inhibition of MARK4(h) at 10.0 µM in the Eurofins Kinase panel; conditions: Compound concentration 10.0 uM
[6] = target: Glucocorticoid receptor (Homo sapiens) (UniProt P04150); conditions: Compound concentration 10.0 uM
[7] = target: Mitogen-activated protein kinase kinase kinase 3 (Homo sapiens) (UniProt Q99759); assay: Inhibition of MEKK3(h) at 10.0 µM in the Eurofins Kinase panel; conditions: Compound concentration 10.0 uM
[8] = target: Cyclin-G-associated kinase (Homo sapiens) (UniProt O14976); assay: Inhibition of GAK(h) at 10.0 µM in the Eurofins Kinase panel; conditions: Compound concentration 10.0 uM
[9] = target: Serine/threonine-protein kinase Sgk3 (Homo sapiens) (UniProt Q96BR1); assay: Inhibition of SGK3(h) at 10.0 µM in the Eurofins Kinase panel; conditions: Compound concentration 10.0 uM
[10] = target: GABA-A receptor; anion channel (Rattus norvegicus) (UniProt O09028+P15431+P18506+P18508+P19969+P20236+P23574+P23576+P28471+P28473+P30191+P62813+P63079+P63138+Q91ZM7+Q9ES14); conditions: Compound concentration 10.0 uM
[11] = target: MAP kinase-interacting serine/threonine-protein kinase 2 (Homo sapiens) (UniProt Q9HBH9); assay: Inhibition of Mnk2(h) at 10.0 µM in the Eurofins Kinase panel; conditions: Compound concentration 10.0 uM
[12] = target: Receptor-type tyrosine-protein kinase FLT3 (Homo sapiens) (UniProt P36888); assay: Inhibition of Flt3(h) at 10.0 µM in the Eurofins Kinase panel; conditions: Compound concentration 10.0 uM
[13] = target: Serine/threonine-protein kinase Nek3 (Homo sapiens) (UniProt P51956); assay: Inhibition of NEK3(h) at 10.0 µM in the Eurofins Kinase panel; conditions: Compound concentration 10.0 uM
[14] = target: Delta-type opioid receptor (Homo sapiens) (UniProt P41143); conditions: Compound concentration 10.0 uM
[15] = target: Calcium/calmodulin-dependent protein kinase kinase 1 (Homo sapiens) (UniProt Q8N5S9); assay: Inhibition of CaMKK1(h) at 10.0 µM in the Eurofins Kinase panel; conditions: Compound concentration 10.0 uM
[16] = target: CDK17/Cyclin-Y (Homo sapiens) (UniProt Q00537+Q8ND76); assay: Inhibition of CDK17/cyclinY(h) at 10.0 µM in the Eurofins Kinase panel; type: protein-complex assay; conditions: Compound concentration 10.0 uM
[17] = target: Casein kinase I isoform epsilon (Homo sapiens) (UniProt P49674); assay: Inhibition of CK1epsilon(h) at 10.0 µM in the Eurofins Kinase panel; conditions: Compound concentration 10.0 uM
[18] = target: Histamine H1 receptor (Homo sapiens) (UniProt P35367); conditions: Compound concentration 10.0 uM
[19] = target: CDC7/Cyclin B1 (Homo sapiens) (UniProt P14635+O00311); assay: Inhibition of Cdc7/cyclinB1(h) at 10.0 µM in the Eurofins Kinase panel; type: protein-complex assay; conditions: Compound concentration 10.0 uM
[20] = target: BMP-2-inducible protein kinase (Homo sapiens) (UniProt Q9NSY1); assay: Inhibition of BIKe(h) at 10.0 µM in the Eurofins Kinase panel; conditions: Compound concentration 10.0 uM
[21] = target: Endothelin receptor type B (Homo sapiens) (UniProt P24530); conditions: Compound concentration 10.0 uM
[22] = target: Ribosomal protein S6 kinase beta-1 (Homo sapiens) (UniProt P23443); assay: Inhibition of p70S6K(h) at 10.0 µM in the Eurofins Kinase panel; conditions: Compound concentration 10.0 uM
[23] = target: SRSF protein kinase 3 (Homo sapiens) (UniProt Q9UPE1); assay: Inhibition of MSSK1(h) at 10.0 µM in the Eurofins Kinase panel; conditions: Compound concentration 10.0 uM
[24] = target: cAMP-dependent protein kinase (PKA) (Homo sapiens) (UniProt P22694+P17612+P22612); assay: Inhibition of PKA(h) at 10.0 µM in the Eurofins Kinase panel; type: protein assay; conditions: Compound concentration 10.0 uM
[25] = target: MAP/microtubule affinity-regulating kinase 3 (Homo sapiens) (UniProt P27448); assay: Inhibition of MARK3(h) at 10.0 µM in the Eurofins Kinase panel; conditions: Compound concentration 10.0 uM
[26] = target: G protein-coupled receptor kinase 6 (Homo sapiens) (UniProt P43250); assay: Inhibition of GRK6(h) at 10.0 µM in the Eurofins Kinase panel; conditions: Compound concentration 10.0 uM
[27] = target: Mitogen-activated protein kinase kinase kinase kinase 4 (Homo sapiens) (UniProt O95819); assay: Inhibition of MAP4K4(h) at 10.0 µM in the Eurofins Kinase panel; conditions: Compound concentration 10.0 uM
[28] = target: Protein kinase C theta type (Homo sapiens) (UniProt Q04759); assay: Inhibition of PKCtheta(h) at 10.0 µM in the Eurofins Kinase panel; conditions: Compound concentration 10.0 uM
[29] = target: Serine/threonine-protein kinase pim-2 (Homo sapiens) (UniProt Q9P1W9); assay: Inhibition of Pim-2(h) at 10.0 µM in the Eurofins Kinase panel; conditions: Compound concentration 10.0 uM
[30] = target: Transcription initiation factor TFIID subunit 1-like (Homo sapiens) (UniProt Q8IZX4); assay: Inhibition of TAF1L(h) at 10.0 µM in the Eurofins Kinase panel; conditions: Compound concentration 10.0 uM
Oxytocin receptor = target: T1, Oxytocin receptor (Homo sapiens, UniProt P30559); assay: Radiometric OXTR binding assay (Eurofins #260900)
T1 sequence (P30559 whole entry): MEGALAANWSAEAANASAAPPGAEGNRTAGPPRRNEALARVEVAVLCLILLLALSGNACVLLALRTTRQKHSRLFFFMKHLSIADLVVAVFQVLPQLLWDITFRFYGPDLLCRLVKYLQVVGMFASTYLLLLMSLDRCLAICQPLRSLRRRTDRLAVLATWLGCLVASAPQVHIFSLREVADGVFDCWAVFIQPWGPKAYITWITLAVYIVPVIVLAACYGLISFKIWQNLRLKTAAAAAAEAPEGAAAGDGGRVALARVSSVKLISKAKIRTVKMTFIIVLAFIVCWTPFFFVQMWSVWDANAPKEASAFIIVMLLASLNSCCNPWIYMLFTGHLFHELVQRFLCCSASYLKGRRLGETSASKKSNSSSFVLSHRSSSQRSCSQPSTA

[31] = target: CDK18/Cyclin Y (Homo sapiens) (UniProt Q07002+Q8ND76); assay: Inhibition of CDK18/cyclinY(h) at 10.0 µM in the Eurofins Kinase panel; type: protein-complex assay; conditions: Compound concentration 10.0 uM

Histamine H1 receptor (Homo sapiens), sequence (P35367 whole entry): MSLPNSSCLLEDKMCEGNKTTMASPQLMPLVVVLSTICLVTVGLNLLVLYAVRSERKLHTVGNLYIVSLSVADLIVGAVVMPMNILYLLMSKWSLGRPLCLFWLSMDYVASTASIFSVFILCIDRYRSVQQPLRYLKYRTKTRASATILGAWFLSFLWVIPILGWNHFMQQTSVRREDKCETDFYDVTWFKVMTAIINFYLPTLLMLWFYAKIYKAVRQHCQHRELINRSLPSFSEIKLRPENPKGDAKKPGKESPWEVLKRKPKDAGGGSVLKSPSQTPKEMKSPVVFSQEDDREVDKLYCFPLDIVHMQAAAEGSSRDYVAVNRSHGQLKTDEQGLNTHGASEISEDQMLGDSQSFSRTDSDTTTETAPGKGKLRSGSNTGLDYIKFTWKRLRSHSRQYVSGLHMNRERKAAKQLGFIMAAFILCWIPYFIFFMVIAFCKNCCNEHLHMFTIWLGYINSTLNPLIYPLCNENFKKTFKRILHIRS
Alpha-1B adrenergic receptor (Homo sapiens), sequence (P35368 whole entry): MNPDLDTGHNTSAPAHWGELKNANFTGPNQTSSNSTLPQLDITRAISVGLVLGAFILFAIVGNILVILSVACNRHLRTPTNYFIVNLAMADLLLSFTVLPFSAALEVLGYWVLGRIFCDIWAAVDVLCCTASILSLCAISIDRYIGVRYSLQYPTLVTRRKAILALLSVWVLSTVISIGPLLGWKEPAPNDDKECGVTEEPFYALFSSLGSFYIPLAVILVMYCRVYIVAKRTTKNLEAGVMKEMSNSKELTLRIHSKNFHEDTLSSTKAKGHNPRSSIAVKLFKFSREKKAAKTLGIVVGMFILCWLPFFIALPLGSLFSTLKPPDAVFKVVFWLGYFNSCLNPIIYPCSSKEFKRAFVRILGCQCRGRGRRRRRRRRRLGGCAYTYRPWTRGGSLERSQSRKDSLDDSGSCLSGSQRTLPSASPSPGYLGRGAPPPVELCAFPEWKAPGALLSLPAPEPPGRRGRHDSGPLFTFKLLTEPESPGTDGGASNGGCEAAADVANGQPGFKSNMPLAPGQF
SRSF protein kinase 3 (Homo sapiens), sequence (Q9UPE1 whole entry): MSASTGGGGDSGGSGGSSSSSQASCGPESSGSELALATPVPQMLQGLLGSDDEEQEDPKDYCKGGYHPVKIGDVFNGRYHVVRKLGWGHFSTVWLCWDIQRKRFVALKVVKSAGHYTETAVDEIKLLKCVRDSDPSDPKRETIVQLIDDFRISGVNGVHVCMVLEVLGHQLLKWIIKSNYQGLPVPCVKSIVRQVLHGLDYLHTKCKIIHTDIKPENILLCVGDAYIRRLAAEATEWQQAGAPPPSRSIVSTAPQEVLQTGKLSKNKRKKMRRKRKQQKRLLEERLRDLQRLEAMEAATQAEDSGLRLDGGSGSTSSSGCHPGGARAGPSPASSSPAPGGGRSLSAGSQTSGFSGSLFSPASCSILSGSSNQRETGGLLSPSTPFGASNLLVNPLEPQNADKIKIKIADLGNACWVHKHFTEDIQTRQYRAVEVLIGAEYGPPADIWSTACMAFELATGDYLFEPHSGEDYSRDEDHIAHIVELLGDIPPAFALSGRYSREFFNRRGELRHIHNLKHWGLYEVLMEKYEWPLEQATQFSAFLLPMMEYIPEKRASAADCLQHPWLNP
Glucocorticoid receptor (Homo sapiens), sequence (P04150 whole entry): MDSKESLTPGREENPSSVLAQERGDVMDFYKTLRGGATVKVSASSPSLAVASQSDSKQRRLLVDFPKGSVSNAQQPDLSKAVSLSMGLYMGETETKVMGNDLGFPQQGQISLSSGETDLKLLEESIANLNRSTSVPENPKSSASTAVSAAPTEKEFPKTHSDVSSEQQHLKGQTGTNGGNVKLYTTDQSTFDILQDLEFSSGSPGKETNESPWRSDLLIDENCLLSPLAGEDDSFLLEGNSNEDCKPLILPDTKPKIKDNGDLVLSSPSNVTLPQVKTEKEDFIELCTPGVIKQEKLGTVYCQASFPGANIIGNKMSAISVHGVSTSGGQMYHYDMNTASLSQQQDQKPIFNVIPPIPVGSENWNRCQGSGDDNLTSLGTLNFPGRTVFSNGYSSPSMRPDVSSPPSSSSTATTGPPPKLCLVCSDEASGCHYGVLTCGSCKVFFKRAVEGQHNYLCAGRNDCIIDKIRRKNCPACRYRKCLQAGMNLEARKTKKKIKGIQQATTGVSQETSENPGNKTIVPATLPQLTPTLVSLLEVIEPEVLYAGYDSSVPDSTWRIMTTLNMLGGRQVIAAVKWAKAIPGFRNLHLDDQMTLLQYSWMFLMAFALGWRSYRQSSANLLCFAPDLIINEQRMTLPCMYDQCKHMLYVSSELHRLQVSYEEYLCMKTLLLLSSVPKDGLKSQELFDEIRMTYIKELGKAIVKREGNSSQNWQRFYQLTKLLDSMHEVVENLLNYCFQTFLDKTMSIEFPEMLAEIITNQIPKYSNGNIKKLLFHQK
MAP kinase-interacting serine/threonine-protein kinase 2 (Homo sapiens), sequence (Q9HBH9 whole entry, looked up): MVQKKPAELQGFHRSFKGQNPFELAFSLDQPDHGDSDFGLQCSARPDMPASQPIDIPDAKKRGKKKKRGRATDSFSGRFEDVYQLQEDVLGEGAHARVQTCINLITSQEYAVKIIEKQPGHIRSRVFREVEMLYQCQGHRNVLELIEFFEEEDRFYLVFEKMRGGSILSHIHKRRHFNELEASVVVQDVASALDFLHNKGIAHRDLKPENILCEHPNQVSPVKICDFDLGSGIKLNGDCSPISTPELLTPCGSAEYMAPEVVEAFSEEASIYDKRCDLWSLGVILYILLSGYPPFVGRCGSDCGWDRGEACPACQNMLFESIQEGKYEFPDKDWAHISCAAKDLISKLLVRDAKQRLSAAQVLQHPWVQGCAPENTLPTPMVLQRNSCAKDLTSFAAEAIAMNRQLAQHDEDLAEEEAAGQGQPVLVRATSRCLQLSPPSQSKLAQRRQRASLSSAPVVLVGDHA
MAP/microtubule affinity-regulating kinase 4 (Homo sapiens), sequence (Q96L34 whole entry): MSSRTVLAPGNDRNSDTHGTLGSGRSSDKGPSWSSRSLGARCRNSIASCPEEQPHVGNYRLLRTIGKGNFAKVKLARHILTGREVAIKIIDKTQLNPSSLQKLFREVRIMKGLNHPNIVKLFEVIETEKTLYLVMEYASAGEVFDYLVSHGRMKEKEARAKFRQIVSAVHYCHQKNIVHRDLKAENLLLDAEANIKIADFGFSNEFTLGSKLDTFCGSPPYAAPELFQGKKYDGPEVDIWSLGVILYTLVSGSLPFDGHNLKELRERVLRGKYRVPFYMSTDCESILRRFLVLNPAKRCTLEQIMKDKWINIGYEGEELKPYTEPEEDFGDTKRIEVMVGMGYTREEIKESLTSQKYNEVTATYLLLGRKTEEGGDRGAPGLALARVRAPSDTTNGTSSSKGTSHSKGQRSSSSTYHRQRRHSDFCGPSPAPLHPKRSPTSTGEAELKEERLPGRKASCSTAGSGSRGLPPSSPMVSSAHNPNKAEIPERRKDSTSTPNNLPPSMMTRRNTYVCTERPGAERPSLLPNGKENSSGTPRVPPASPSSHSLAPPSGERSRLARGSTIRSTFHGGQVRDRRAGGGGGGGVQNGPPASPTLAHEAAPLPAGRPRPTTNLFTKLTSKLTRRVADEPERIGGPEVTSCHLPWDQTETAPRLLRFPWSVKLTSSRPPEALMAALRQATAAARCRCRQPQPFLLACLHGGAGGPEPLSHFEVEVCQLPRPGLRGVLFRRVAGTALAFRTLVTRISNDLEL
Serine/threonine-protein kinase PAK 5 (Homo sapiens), sequence (Q9P286 whole entry, looked up): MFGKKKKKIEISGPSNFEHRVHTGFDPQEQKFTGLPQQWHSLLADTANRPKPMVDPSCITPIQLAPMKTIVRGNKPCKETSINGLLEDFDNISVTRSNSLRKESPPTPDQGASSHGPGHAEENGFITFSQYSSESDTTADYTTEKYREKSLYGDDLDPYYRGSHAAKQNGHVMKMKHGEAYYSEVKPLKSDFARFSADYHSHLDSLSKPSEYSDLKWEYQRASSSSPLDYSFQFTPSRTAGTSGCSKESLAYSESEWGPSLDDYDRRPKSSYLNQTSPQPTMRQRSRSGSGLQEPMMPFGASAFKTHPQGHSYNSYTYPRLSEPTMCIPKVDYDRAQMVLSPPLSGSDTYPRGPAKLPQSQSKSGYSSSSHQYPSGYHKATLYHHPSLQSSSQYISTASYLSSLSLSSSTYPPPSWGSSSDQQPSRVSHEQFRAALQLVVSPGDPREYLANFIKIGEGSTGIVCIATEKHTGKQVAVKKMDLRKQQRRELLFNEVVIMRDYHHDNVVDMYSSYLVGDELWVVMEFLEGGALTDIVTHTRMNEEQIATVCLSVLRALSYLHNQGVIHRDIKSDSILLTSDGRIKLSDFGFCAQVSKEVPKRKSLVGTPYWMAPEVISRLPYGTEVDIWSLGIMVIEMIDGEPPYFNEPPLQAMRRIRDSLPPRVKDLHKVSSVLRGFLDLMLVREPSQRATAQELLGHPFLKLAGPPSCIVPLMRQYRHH
Serine/threonine-protein kinase Nek3 (Homo sapiens), sequence (P51956 whole entry): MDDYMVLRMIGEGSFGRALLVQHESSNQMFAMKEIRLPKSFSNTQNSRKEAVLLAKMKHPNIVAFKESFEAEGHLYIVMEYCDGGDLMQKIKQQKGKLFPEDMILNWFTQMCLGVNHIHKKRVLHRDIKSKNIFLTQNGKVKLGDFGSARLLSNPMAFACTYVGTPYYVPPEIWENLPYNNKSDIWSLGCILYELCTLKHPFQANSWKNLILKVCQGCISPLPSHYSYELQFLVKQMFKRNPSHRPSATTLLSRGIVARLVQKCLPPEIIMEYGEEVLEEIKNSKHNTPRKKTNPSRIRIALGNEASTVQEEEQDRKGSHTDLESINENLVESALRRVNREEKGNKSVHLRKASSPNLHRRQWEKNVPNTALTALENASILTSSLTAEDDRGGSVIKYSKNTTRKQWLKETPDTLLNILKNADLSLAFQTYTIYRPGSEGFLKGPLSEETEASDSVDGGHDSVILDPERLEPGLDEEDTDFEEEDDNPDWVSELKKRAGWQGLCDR

Structure (SMILES) | inhibition [1] [%] | inhibition [2] [%] | inhibition [3] [%] | inhibition [4] [%] | inhibition [5] [%] | inhibition [6] [%] | inhibition [7] [%] | inhibition [8] [%] | inhibition [9] [%] | inhibition [10] [%] | inhibition [11] [%] | inhibition [12] [%] | inhibition [13] [%] | inhibition [14] [%] | inhibition [15] [%] | inhibition [16] [%] | inhibition [17] [%] | inhibition [18] [%] | inhibition [19] [%] | inhibition [20] [%] | other results
O=c1n(Cc2cncn2-c2cccc(Cl)c2)nc(-c2ccc(Cl)cc2)n1C[C@H](O)C(F)(F)F | -2.47 | -0.49 | 1.49 | -0.37 | 2.56 | 32 | 7.5 | 0.33 | -5.09 | 12 | -0.78 | -4.56 | 5.44 | 2 | 1.19 | 3.78 | 4.45 | 28.5 | 3.68 | -1.55 | inhibition [21]: 1%; inhibition [22]: 4.83%; inhibition [23]: 9.31%; inhibition [24]: 2.56%; inhibition [25]: -3.59%; inhibition [26]: -0.21%; inhibition [27]: 5.56%; inhibition [28]: 14.5%; inhibition [29]: 4.89%; inhibition [30]: -2.39%; Ki (Oxytocin receptor): > 10 µM (not active); inhibition [31]: -1.75%
C[C@H](O)c1nc(Cn2nc(-c3ccc(Cl)cc3)n(C[C@H](O)C(F)(F)F)c2=O)nn1-c1cccc(Cl)c1 [PECAVAPTAN] | -5.25 | -2.91 | -3.61 | -2.06 | 2.7 | 1 | 2.27 | 10.4 | -6.13 | 30 | 3.54 | 0.7 | 61 | 4 | -5.02 | 5.47 | 1.26 | 12 | 9.78 | -0.71 | inhibition [21]: 5%; inhibition [22]: 1.02%; inhibition [23]: -9.95%; inhibition [24]: -3.46%; inhibition [25]: -2.13%; inhibition [26]: 1.15%; inhibition [27]: -1.46%; inhibition [28]: 3.44%; inhibition [29]: -2.97%; inhibition [30]: 2.81%; Ki (Oxytocin receptor): 0.0051 µM (active); inhibition [31]: 2.34%

— ChEMBL document CHEMBL5463729, “Data for DCP probe BAY 1753011” (2023)
